This is an account of results in patent US20100021420A1, “COMBINATIONS OF PYRAZOLE DERIVATIVES FOR THE INHIBITION OF CDKS AND GSK'S” (ASTEX THERAPEUTICS LIMITED, priority 2006, published 2010).

The subject of data set [1] is P-glycoprotein-overexpressing subline of leukemic cell line CCRF-CEM. To be noted: cited from earlier work.
The subject of data set [2] is human colon carcinoma cell line HCT 116. In words: Anti-proliferative activity, HCT-116 cell line. In kind it is cell-based. Conditions: HCT 116 (ECACC No. 91091005). The text has this: See Example 15 of WO 2006/077426 at pages 100-101 (which is incorporated herein by reference).
Data set [3] has as its system Acute Promyelocytic Leukemia (APL). Conditions: cited from earlier work.
Data set [4] can be described thus: Vapour sorption/desorption analysis. In kind it is physicochemical. As to the method: Approximately 20 mg of sample was placed into a wire-mesh vapour sorption balance pan and loaded into an ‘IgaSorp’ vapour sorption balance (Hiden Analytical Instruments) held at 25+/−0.1° C. The sample was then dried by maintaining a 0% humidity environment (using mass flow control apparatus) until no further weight change was recorded. Subsequently, the sample was then subjected to a ramping profile from 0-90% relative humidity (% RH) at 10% RH increments, maintaining the sample at each step until equilibration had been attained (99.5% step completion).
Upon reaching equilibration, the % RH within the apparatus was ramped to the next step and the equilibration procedure repeated. After completion of the sorption cycle, the sample was then dried using the same procedure. The weight change during the sorption/desorption cycles was then monitored, allowing for the hygroscopic nature of the sample to be determined.

Data set [5] can be described thus: Thermogravimetric analysis. In kind it is physicochemical. The protocol:
Approximately 5 mg of sample (accurately weighed) was placed into a platinum TGA pan and loaded into a TGA 7 gravimetric analyser. The sample under study was then heated at a rate of 10° C./min (from ambient to 300° C.) and the resulting change in weight monitored. A dry nitrogen purge gas at a flow rate of 20 ml/min was used to produce an inert atmosphere and prevent oxidation of the sample during heating. Prior to analysis the instrument was weight calibrated using a 100 mg reference standard and temperature calibrated using an Alumel reference standard (using the Curie point transition temperature).

A further data set has as its system PKC. Conditions: cited from earlier work.
Another data set deals with OVCAR-3 tumour cells. To be noted: in which PKB is amplified, concentrations of 50 and 100 microM; cited from earlier work.
For data set [6] the following is noted: antitumour agent; cited from earlier work.
The conditions of data set [7]: mice; doses 10 times more than were needed for antitumour activity; cited from earlier work.
Another data set concerns HCT116 cell line. The experiment in a line: IC50 shift assay (combination), HCT116 cells. In kind it is cell-based.
The next data set has as its system A2780 cells. The experiment in a line: IC50 shift assay (combination), A2780 cells. In kind it is cell-based.
In data set [8] the test system is Human colon carcinoma cell line HT29. The experiment in a line: IC50 shift assay (combination), HT29 cells. In kind it is cell-based. To be noted: concurrent 72 hours, camptothecin 24 hours then Compound I 48 hours, or Compound I prior to camptothecin. The protocol: Human colon carcinoma cell line HT29 (ECACC No. 91072201) cells were seeded onto 96-well tissue culture plates at a concentration of 5×10^3 cells/well. Cells were allowed to recover overnight prior to addition of compound(s) or vehicle control (0.2% DMSO) as follows;
Compounds were added according to one of the following schedules; • a) Concurrent for 72 hours. • b) Compound I for 24 hours followed by camptothecin for 48 hours. • c) Camptothecin for 24 hours followed by Compound I for 48 hours.
Following a total of 72 hours compound incubation, Alamar Blue™ was added to a final concentration of 10% (v/v) and incubated at 37° C. for 6 hours. Fluorescent product was quantified by reading at d535/25× (excitation) and d590/20 m (emission) on a Fusion Reader (Perkin Elmer). The IC50 for camptothecin in the presence of varying doses of Compound I was determined.

The next data set relates to SkBR3 cell line. In words: IC50 shift assay (combination), SkBR3 cells. In kind it is cell-based.
A further data set deals with CLL. Conditions: initial therapy, symptomatic CLL patients, cited from earlier work.

A value given as a limit tells only on which side of the number the result lay.

The term IC50 denotes the concentration that inhibits the measured activity by half. `C/C1=C/C[C@@H](/C(C)=C/c2csc(C)n2)OC(=O)C[C@H](O)C(C)(C)C(=O)[C@H](C)[C@@H](O)[C@@H](C)CCC1` [desoxyepothilone B]: the IC50 in data set [1] is 0.017 µM.

In data set [2], `O=C(NC1CCNCC1)c1n[nH]cc1NC(=O)c1c(Cl)cccc1Cl` [Example 1] returned an IC50 of less than 20 µM.

Consider `CC1=C(/C=C/C(C)=C/C=C/C(C)=C/C(=O)O)C(C)(C)CCC1` [Tretinoin], for which the “remissions in APL patients” value in data set [3] is 64-100%.

For the compound `CS(=O)(=O)N1CCC(NC(=O)c2n[nH]cc2NC(=O)c2c(Cl)cccc2Cl)CC1` [Set B Example 1, 4-(2,6-dichloro-benzoylamino)-1H-pyrazole-3-carboxylic acid (1-methanesulphonyl-piperidin-4-yl)-amide], the “weight loss during initial drying” value in data set [4] (0% RH, 25 °C) is given as “approximately 0.01%”. The “hygroscopicity / hydrate formation” value in data set [4] (storage in elevated humidity conditions) is “physically stable with regard to hygroscopicity”. The compound further came in with a total weight increase in data set [4] (upon equilibration at 90% RH, 25 °C) of 0.24%. For the same compound, the “significant event (thermally induced partial degradation) in TGA plot” value in data set [5] (onset prior to the main melt transition) was “about 288 °C”. The “mass loss (TGA)” value in [5] (up to 150° C., crystals from Example 5 Step 8) is “approximately 0.2%”.

`O=S(=O)(NCCNCC=C(c1ccccc1)c1ccccc1)c1cccc2cnccc12` [NL-71-101]: in the data set with PKC, the IC50 was 104 µM. In addition, the apoptosis entry in the data set with OVCAR-3 tumour cells is “induced apoptosis”.

For `CCN[C@H]1CO[C@@H](O[C@H]2[C@H](O[C@H]3C#C/C=C\C#C[C@]4(O)CC(=O)C(NC(=O)OC)=C3/C4=C\CSSSC)O[C@H](C)[C@@H](NO[C@H]3C[C@H](O)[C@H](SC(=O)c4c(C)c(I)c(O[C@@H]5O[C@@H](C)[C@H](O)[C@@H](OC)[C@H]5O)c(OC)c4OC)[C@@H](C)O3)[C@@H]2O)C[C@@H]1OC` [Calicheamicin], the “potency relative to adriamycin” value in data set [6] was “over 1,000 times”.

In the case of `CCOC(=O)c1ccc2[nH]c3c(OC)c4[nH]c5ccc(C(=O)OCC)cc5c4cc3c2c1` [SR-13668], the adverse effects entry in data set [7] was “no adverse effects”.

`O=C(NC1CCNCC1)c1n[nH]cc1NC(=O)c1c(Cl)cccc1Cl` [Compound I, 4-(2,6-dichloro-benzoylamino)-1H-pyrazole-3-carboxylic acid piperidin-4-ylamide]: the “effect of combination with Iressa (synergy) confirmed” value with HCT116 cell line and in the data set on SkBR3 cell line was “confirmed” each time. For the same compound, the entries for the “effect of combination with Paclitaxel in IC50 shift assay” value in the data set on A2780 cells (Paclitaxel 24 h followed by Compound I 48 h) and in the data set with A2780 cells (added concurrently for 72 h) were “synergy” and “Additive”, respectively. In the data set with A2780 cells (added concurrently for 72 h), the “effect of combination with 5-FU in IC50 shift assay” value was “mildly synergistic”. For the same compound, the “effect of combination with Iressa in IC50 shift assay” value in the data set with A2780 cells (added concurrently for 72 h) was “synergistic”. Further, in the data set with A2780 cells (concurrently for 72 h or Cisplatin 24 h followed by compound I 48 h), the “effect of combination with Cisplatin in IC50 shift assay” value was “additive”. Further, the “effect of combination with Etoposide in IC50 shift assay” value in the data set on A2780 cells (concurrently for 72 h or Etoposide 24 h followed by compound I 48 h) is recorded as “additive”. In the data set with A2780 cells (concurrently for 72 h or Gemcitibine 24 h followed by Compound I 48 h), the “effect of combination with Gemcitibine in IC50 shift assay” value is given as “additive”. Further, the “effect of combination with Vinblastine in IC50 shift assay” value with A2780 cells (concurrently for 72 h or Vinblastine 24 h followed by compound I 48 h) is on record as “additive”. For the same compound, in data set [8], the “effect of combination with camptothecin in IC50 shift assay” value is recorded as “additive”.

Turning to `Nc1nc(F)nc2c1ncn2[C@@H]1O[C@H](CO)[C@@H](O)[C@@H]1O` [fludarabine, 9-β-D-arabinofuranosyl-2-fluoro-adenine], the “rate of complete responses” value in the data set with CLL (v 3% with alkylator-based therapies) was 27%. Also, the “duration of progression-free survival” value in the data set with CLL (v 17 months with alkylator-based therapies) is 33 months.
